Results reported in paper PMC8587785, “A New Class of Uracil–DNA Glycosylase Inhibitors Active against Human and Vaccinia Virus Enzyme” (Molecules, 2021).
Entries after “also recorded” stand apart in the source; their conditions may differ. Like-named read-outs stand apart in the source and are kept apart here.

Key:
hUNG [1] = molecular target: T1, hUNG (Homo sapiens, UniProt P13051); assay: Uracil–DNA glycosylase assay, biochemical screening against hUNG (cleavage of 32P-labeled ssDNA 20-mer with dU); conditions: for hUNG inhibition, dose response: inhibitors at 10, 100 and 1000 μM; for IC50: conditions used for screening: 50 nM substrate, 20 pM enzyme, 10 min, 37 °C
T1 construct: truncated catalytically active human uracil–DNA glycosylase (hUNG ΔN84); His6 (N); linker with thrombin cleavage site (pET-15b) (N); made in house; host or cells: E. coli BL21(DE3), pET-15b
Description: As hUNG excises Ura from single- and double-stranded DNA with similar efficiency, we have used the cleavage of a 20-mer single-stranded DNA oligonucleotide containing a dU residue in position 8 (Section 4.1) to assay hUNG activity in the presence of inhibitors. Twenty-three identified compounds were tested at 10, 100, and 1000 μM (Figure 2a). […] However, even the best inhibitor, 4B, had IC50 between 100 and 1000 μM under the conditions used for screening.
Figure 2 Biochemical screening of the inhibitors identified by molecular docking. (a) hUNG activity in the presence of the inhibitors at 10 μM (black bars), 100 μM (light gray bars), or 1000 μM (dark gray bars). The activity is normalized for that in the absence of the inhibitor. Means and SD of three independent experiments are shown; (b) Structures of the compounds 2D, 3A, 3B, 4B, 4E, 4F, and 4G.
The identified compounds were purchased from Vitas-M Laboratory (Vitas-M Laboratory, Ltd., Hong Kong, China). The reaction mixture (10 μL) included 25 mM sodium phosphate (pH 7.5), 1 mM dithiothreitol, 1 mM Na-EDTA, 50 nM ^32P-labeled substrate, 20 pM enzyme, and the inhibitors at 10, 100, and 1000 μM. The reaction was carried out for 10 min at 37 °C, terminated by adding NaOH to 100 mM and heating for 2 min at 95 °C, and neutralized by an equimolar amount of HCl. The mixture was supplemented with 5 μL of formamide dye (80% formamide, 20 mM Na-EDTA, 0.1% xylene cyanol, 0.1% bromophenol blue), and the reaction products were separated by gel electrophoresis in 20% polyacrylamide/7.2 M urea. The gels were visualized and quantified by phosphorimaging using the Typhoon FLA 9500 system (GE Healthcare, Chicago, IL, USA).

[2] = molecular target: T2, vaccinia virus UNG (vvUNG, D4 protein) (Vaccinia virus, UniProt P20536); type: biochemical; conditions: at 100 μM
T2 construct: made in house

hUNG [3] = molecular target: T1, hUNG; assay: Inhibition mechanism determination, steady-state kinetics of substrate cleavage by hUNG; type: biochemical; conditions: for θ rel (Akaike’s relative likelihood of the model): best model’s likelihood taken for 1; for Vmax: fit in the presence of the inhibitor; for mode of inhibition: fit to competitive, uncompetitive and mixed models
Description: KM and Vmax parameters of the Michaelis–Menten scheme were determined at different inhibitor concentrations, and the results were analyzed by fitting to competitive, uncompetitive, and mixed inhibition models (Figure 3, Table 1). Akaike’s information criterion was used to compare the quality of fit under the models. […] The kinetic values reported for ssDNA cleavage by hUNG in the literature vary widely (0.22–13.8 μM for KM, 647–1060 min^−1 for kcat) yet generally agree with our data.
The reactions were performed as described above except that the substrate concentrations were 0.1, 0.3, 0.5, 0.7, 1, 3, 5, 7, and 10 μM, and the inhibitors concentrations were 0, 100, 300, 500, and 1000 μM. […] To determine the type of inhibition and calculate Ki, the data were fit to the competitive, uncompetitive, and mixed inhibition models using an R script.

HEK 293FT cells = assay: Cell toxicity assay (MTT); type: cell-based, human; conditions: for EC50: Homo sapiens, HEK293FT, 72 h, read-out: effective concentration (toxicity)
Description: To assess the toxicity of UNG inhibitors for human cells, we have treated HEK293 cell line with the compounds 4B and 4F as the best inhibitors (Table 1). […] Since Ura preferentially accumulates in DNA from a dUTP pool, we have next tested the toxicity of these UNG inhibitors in the presence of MTX, which is an antimetabolite drug that inhibits dihydrofolate reductase, reduces the availability of tetrahydrofolate, and thus suppresses the conversion of […].
Figure 4 Cytotoxicity of UNG inhibitors. (a) Survival of HEK 293FT cells in the presence of the UNG inhibitors 4B and 4F (0.8–500 μM); (b) survival of HEK 293FT cells in the presence of MTX alone (0.02–10 μM) or 100 μM 4B plus MTX (0.1–10 μM); (c) survival of HEK 293FT cells in the presence of the UNG inhibitors 4B and 4F (0.8–500 μM) plus 0.1 μM MTX. In Panel C, the survival in the presence of 0.1 μM MTX alone is taken for 100%. Mean ± s. e. m. is shown (n = 3).
Human embryonic kidney cells (HEK 293FT) were from Thermo Fisher Scientific (Waltham, MA, USA; Cat. #R70007). The laboratory stock was regularly checked for the absence of mycoplasma contamination by PCR. Cells were grown in T25 cm^2 flasks in the complete medium (Dulbecco’s modified Eagle’s medium supplemented with 10% fetal bovine serum, 1 mM sodium pyruvate, 2 mM L-glutamine, and 1% penicillin–streptomycin–amphotericin B) as adherent monolayer cultures. The cultures were maintained at 37 °C in humidified atmosphere with 5% CO2. Cytotoxicity was determined by the colorimetric MTT (3-(4,5-dimethyl-2-thiazolyl)-2,5-diphenyl-2H-tetrazolium bromide) assay. The cells were harvested by trypsinization, seeded in the complete medium (100 μL per well) into 96-well plates at the density of 1.4×10^4 cells per well, and incubated for 24 h to settle and resume proliferation. MTX was dissolved in 1 M NaOH to 22 mM. […] After 15 min at room temperature to solubilize the formed formazan, A570 and A620 were measured with a Multiskan EX microplate reader (Thermo Fisher Scientific, Waltham, MA, USA). […]

947 human cell lines = conditions: read-out: median EC50; cited from earlier work
hUNG [4] = molecular target: T1, hUNG; conditions: open (not DNA-bound) conformation; cited from earlier work
E. coli UNG = conditions: cited from earlier work
[5] = competitive model, read-out: Ki
[6] = uncompetitive model, read-out: Ki

SMILES | hUNG inhibition, dose response (hUNG [1]) | suppression of vvUNG activity [2] | θ rel (Akaike’s relative likelihood of the model) (hUNG [3]; competitive model) | Vmax (hUNG [3]; competitive model) | mode of inhibition (hUNG [3]) | θ rel (Akaike’s relative likelihood of the model) (hUNG [3]; uncompetitive model) | Vmax (hUNG [3]; uncompetitive model) | further results
Cc1ccc(C=C2C(=O)NC(=O)NC2=O)o1 [2D] | progressively lower substrate cleavage with the increasing inhibitor concentration | ≈ 50% | – | – | – | – | – | –
CN(C)c1ccc(C=C2C(=O)NC(=O)NC2=O)cc1 [3A] | progressively lower substrate cleavage with the increasing inhibitor concentration; also recorded: weak dose response | ≈ 50% | 0.655 | 0.029 ± 0.003 µM/min | the uncompetitive model was marginally better | best model | 0.034 ± 0.004 µM/min | Ki (hUNG [3]; Ki, competitive model): 530 ± 270 µM; Ki (hUNG [3]; Ki, uncompetitive model): 1300 ± 500 µM
O=C1NC(=O)C(=Cc2ccco2)C(=O)N1 [3B] | – | ≈ 50% | – | – | – | – | – | –
COc1ccc(C=C2C(=O)NC(=O)NC2=O)c(OC)c1 [4B] | progressively lower substrate cleavage with the increasing inhibitor concentration; also recorded: more pronounced dose response | ≈ 50% | best model | 0.019 ± 0.001 µM/min | clearly better described by the competitive inhibition model | 2.53 × 10^−5 | 0.024 ± 0.003 µM/min | EC50 (HEK 293FT cells): 69 ± 1 µM; Ki (hUNG [3]; [5]): 140 ± 40 µM; Ki (hUNG [3]; [6]): 550 ± 140 µM; IC50 (hUNG [1]): submillimolar range; IC50 (hUNG [1]; read-out: IC50): 100 to 1000 µM
Cc1ccc(C#N)c(SCc2cc(=O)[nH]c(=O)[nH]2)n1 [4E] | progressively lower substrate cleavage with the increasing inhibitor concentration | – | – | – | – | – | – | –
COc1cc(C=C2C(=O)NC(=O)NC2=O)cc(Cl)c1OC [4F] | progressively lower substrate cleavage with the increasing inhibitor concentration; also recorded: more pronounced dose response | – | 0.8 | 0.053 ± 0.014 µM/min | the uncompetitive model was marginally better | best model | 0.075 ± 0.028 µM/min | EC50 (HEK 293FT cells): 77 ± 1 µM; Ki (hUNG [3]; [5]): 200 ± 130 µM; Ki (hUNG [3]; [6]): 250 ± 140 µM; IC50 (hUNG [1]): submillimolar range
CC(Oc1ccc(C=C2C(=O)NC(=O)NC2=O)cc1)C(=O)O (centres unmarked) [4G] | progressively lower substrate cleavage with the increasing inhibitor concentration; also recorded: more pronounced dose response | – | best model | 0.042 ± 0.002 µM/min | clearly better described by the competitive inhibition model | 0.312 | 0.043 ± 0.003 µM/min | Ki (hUNG [3]; Ki, competitive model): 3300 ± 2300 µM; Ki (hUNG [3]; Ki, uncompetitive model): > 10000 µM
CN(Cc1cnc2nc(N)nc(N)c2n1)c1ccc(C(=O)N[C@@H](CCC(=O)O)C(=O)O)cc1 [MTX, methotrexate, reference compound] | – | – | – | – | – | – | – | EC50 (947 human cell lines): 0.595 µM; reduction in the cell viability (HEK 293FT cells; 0.1 μM MTX without the inhibitors): 20–25%
O=C(O)C1=CC(=C(c2ccc(O)c(C(=O)O)c2)c2ccc(O)c(C(=O)O)c2)C=CC1=O [aurintricarboxylic acid] | – | – | – | – | – | – | – | affinity (hUNG [4]): submicromolar affinity
CNC(C)C1CCC(N)C(OC2C(N)CC(N)C(OC3OCC(C)(O)C(NC)C3O)C2O)O1 (centres unmarked) [gentamicin] | – | – | – | – | – | – | – | IC50 (E. coli UNG): ~1000 µM
